Columns and labels:
[1] = system: PC-3; assay: Induction of cell cycle arrest in human PC-3 cells assessed as increase in G2/M phase cell ratio at 2.5 uM incubated for 24 hrs by PI/RNase A staining based flow cytometric analysis (reference value: 16.07%); format: functional
[2] = Acute toxicity in Kunming mouse assessed as effect on kidney at 2 g/Kg, IG measured after 2 weeks by H&E staining based analysis; format: tissue-based; conditions: in vivo, po, 2000 mg/kg, 336 h

For `CN1CCN(CCNC(=O)c2cc(-c3ccc4ccccc4c3)nc3c2cnn3-c2ccccc2)CC1`, the Activity [1] was 18.17% and the Activity [2] was “Non-Toxic”.

From ChEMBL document CHEMBL5346927, “Discovery of a novel 1H-pyrazole- [3,4-b] pyridine-based lysine demethylase 5B inhibitor with potential anti-prostate cancer activity that perturbs the phosphoinositide 3-kinase/AKT pathway” (Eur J Med Chem, 2023)
